Legend:
[1] = system: Human pulmonary artery EC; test: Transendothelial electrical resistance (TER) of HA-treated EC monolayers, Example 1; type: cell-based; conditions: 5 mM MβCD or 10 μg/ml anti-CD44 (IM-7) antibody, 100 nM High or Low MW HA
Experimental: (§1) Measurement of TransEC Electrical Resistance (TER)—EC were grown to confluence in polycarbonate wells containing evaporated gold microelectrodes. TER measurements were performed using an electrical cell-substrate impedance sensing system (Applied Biophysics, Troy, N.Y.) as described (Garcia et al., 2001). TER values from each microelectrode were pooled at discrete time points and plotted versus time as the mean±S.E.

[2] = system: Human pulmonary artery EC; test: Cortical actin (phalloidin) staining and quantitation; type: cell-based; conditions: MβCD one hour prior to 100 nM High MW HA for 30 min
Experimental: Immunofluorescence Microscopy and Cortical Actin Quantitation—Polymerized actin rearrangement was assessed first with Texas Red-conjugated phalloidin (Invitrogen (Molecular Probes), Eugene, Oreg.) and then analyzed using a Nikon Eclipse TE 300 microscope as described (Garcia et al., 2001). ImageQuant™ software (Amersham Biosciences Corp. (Piscataway, N.J.)) was used to analyze the computer recorded .tiff images. A standardized average grey value (SAGV) was generated for total phalloidin staining versus cortical phalloidin staining for each cell (Singleton et al., 2005). The following equation was used to calculate percent cortical actin staining: ((cortical actin SAGV×area) divided by (total actin SAGV×area))×100. At least ten cells per sample were analyzed. Experiments were performed in triplicate.
Immunofluorescence Microscopy. EC were serum-starved for one hour prior to the addition of 100 nM high MW HA. EC were then fixed in 4% paraformaldehyde, permeablized with ethanol and incubated with specific protein or interest primary antibody for 30 min followed by either FITC or Texas Red-conjugated secondary (Invitrogen (Molecular Probes), Eugene, Oreg.) and analyzed using a Nikon Eclipse TE 300 microscope as described (Garcia et. al., 2001).

[3] = system: Human pulmonary microvascular EC (HPMVEC); test: EC electrical resistance (TER), HGF; type: cell-based; conditions: 5 mM MβCD 30 min prior to 25 ng/ml HGF
Experimental: as §1, with “EC” for “TransEC”, “Resistance—EC” for “Resistance (TER)—EC”, “microelectrodes, and” for “microelectrodes.”, “obtained from Applied Biophysics (Troy,” for “(Applied Biophysics, Troy,”

Rac1 = Rac1 activation assay, HGF; type: cell-based, human; conditions: 5 mM MβCD prior to 25 ng/ml HGF
Experimental: Rac1 Activation Assay—Rac1 activity assays were performed as described (Ren et al., 1999) in human lung EC.

Human pulmonary EC = test: TER, Example 5; type: cell-based; conditions: MβCD or IM-7 antibody
Experimental: Measurement of TransEC Electrical Resistance (TER). EC were grown to confluence in polycarbonate wells containing evaporated gold microelectrodes, and TER measurements performed using an electrical cell-substrate impedance sensing system (Applied Biophysics, Troy, N.Y.) as previously described (Garcia et al., 2001). TER values from each microelectrode were pooled at discrete time points and plotted versus time as the mean±S.E.

Substance: methyl-β-cyclodextrin
- inhibition of HA-induced changes in TER [1]: abolished both HMW- and LMW-HA-induced changes in TER
- inhibition of HMW-HA induced cortical actin reorganization [2]: HMW-HA induced cortical actin reorganization was inhibited
- inhibition of HGF-induced increases in EC barrier function (TER) [3]: attenuated HGF-induced increases in human EC barrier function
- inhibition of HGF-induced Rac1 activation (Rac1): inhibited HGF-induced Rac1 activation
- inhibition of effects of HA on TER (Human pulmonary EC): effects of HA on TER were inhibited

— US20100249064A1, “METHODS AND COMPOSITIONS FOR TREATING DISEASES AND CONDITIONS INVOLVING HIGHER MOLECULAR WEIGHT HYALURONAN” (University of Chicago, priority 2007, published 2010)
